Consider 11 compounds from ChEMBL document CHEMBL4251692, “Dual GSK-3β/AChE Inhibitors as a New Strategy for Multitargeting Anti-Alzheimer's Disease Drug Discovery” (ACS Med Chem Lett, 2018).

In data set [1] the target is Glycogen synthase kinase-3 beta (Homo sapiens, UniProt P49841). The data set is described as follows: Inhibition of recombinant human full length N-terminal GST-tagged GSK-3beta expressed in Sf9 insect cells using prephosphorylated polypeptide as substrate after 30 mins by kinase-Glo reagent based luminescence assay. A general note: In Kinase-Glo more light means more ATP remaining.
Chain of Glycogen synthase kinase-3 beta (P49841 whole entry): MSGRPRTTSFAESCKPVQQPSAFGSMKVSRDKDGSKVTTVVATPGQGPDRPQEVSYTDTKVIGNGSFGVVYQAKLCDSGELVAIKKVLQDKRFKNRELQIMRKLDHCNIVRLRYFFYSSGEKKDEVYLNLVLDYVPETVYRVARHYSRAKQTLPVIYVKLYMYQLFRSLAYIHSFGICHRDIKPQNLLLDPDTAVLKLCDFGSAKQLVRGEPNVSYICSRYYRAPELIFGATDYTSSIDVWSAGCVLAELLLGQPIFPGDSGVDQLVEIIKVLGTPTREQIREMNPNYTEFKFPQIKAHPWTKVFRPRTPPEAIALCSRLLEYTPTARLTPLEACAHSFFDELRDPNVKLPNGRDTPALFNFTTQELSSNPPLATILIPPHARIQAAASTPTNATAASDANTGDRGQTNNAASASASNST

Data set [2] deals with T1, Acetylcholinesterase (Homo sapiens, UniProt P22303). As to the kind of experiment: Inhibition of human AChE using acetylthiocholine iodide as substrate incubated for 20 mins followed by substrate addition measured after 2 mins by Ellman's method. For orientation: DTNB colorimetry detects thiols as they appear.
T1 sequence (P22303 whole entry): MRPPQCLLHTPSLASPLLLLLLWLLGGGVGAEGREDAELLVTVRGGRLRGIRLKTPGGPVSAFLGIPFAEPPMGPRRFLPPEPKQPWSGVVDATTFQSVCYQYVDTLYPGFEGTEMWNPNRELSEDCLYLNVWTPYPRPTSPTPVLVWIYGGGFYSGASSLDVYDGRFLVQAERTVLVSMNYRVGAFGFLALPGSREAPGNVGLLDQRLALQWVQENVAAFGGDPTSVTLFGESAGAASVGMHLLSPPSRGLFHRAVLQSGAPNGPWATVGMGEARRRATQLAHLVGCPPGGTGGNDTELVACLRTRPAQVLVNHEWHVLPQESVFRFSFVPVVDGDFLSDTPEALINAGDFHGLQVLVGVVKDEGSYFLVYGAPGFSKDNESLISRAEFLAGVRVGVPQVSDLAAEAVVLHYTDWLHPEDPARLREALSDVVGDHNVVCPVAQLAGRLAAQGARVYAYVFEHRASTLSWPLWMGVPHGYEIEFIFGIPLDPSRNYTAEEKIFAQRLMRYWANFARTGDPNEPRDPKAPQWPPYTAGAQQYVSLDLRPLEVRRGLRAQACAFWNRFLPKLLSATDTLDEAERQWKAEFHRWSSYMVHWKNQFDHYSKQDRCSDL
Data set [3] deals with Cholinesterase (Homo sapiens, UniProt P06276). As to the kind of experiment: Inhibition of human BuChE using butyrylthiocholine iodide as substrate incubated for 20 mins followed by substrate addition measured after 2 mins by Ellman's method.
Chain of Cholinesterase (Homo sapiens, UniProt P06276) (P06276 whole entry): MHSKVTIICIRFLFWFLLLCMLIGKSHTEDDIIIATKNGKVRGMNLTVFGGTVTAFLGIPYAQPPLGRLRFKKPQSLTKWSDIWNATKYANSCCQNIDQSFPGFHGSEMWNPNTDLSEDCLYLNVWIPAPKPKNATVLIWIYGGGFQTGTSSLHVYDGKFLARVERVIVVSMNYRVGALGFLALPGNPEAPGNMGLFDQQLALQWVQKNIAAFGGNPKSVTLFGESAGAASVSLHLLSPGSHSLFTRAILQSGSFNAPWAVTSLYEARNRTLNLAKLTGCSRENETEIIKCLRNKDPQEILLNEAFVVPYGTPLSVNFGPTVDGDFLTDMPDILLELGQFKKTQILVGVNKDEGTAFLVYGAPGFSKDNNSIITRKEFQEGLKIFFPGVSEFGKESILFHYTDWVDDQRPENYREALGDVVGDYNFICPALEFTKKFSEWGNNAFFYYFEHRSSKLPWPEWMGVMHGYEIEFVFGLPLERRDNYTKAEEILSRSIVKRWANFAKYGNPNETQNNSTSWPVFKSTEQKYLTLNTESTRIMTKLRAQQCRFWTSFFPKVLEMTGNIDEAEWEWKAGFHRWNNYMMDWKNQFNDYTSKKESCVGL
The next data set concerns SH-SY5Y. As to the kind of experiment: Cytotoxicity against human SH-SY5Y cells assessed as reduction in cell viability after 48 hrs by MTT assay. Type of data set: cell-based.
A further data set concerns Mus musculus. As to the kind of experiment: Cognition enhancing effect in scopolamine-induced ICR mouse assessed as decrease in distance to target at 15 mg/kg, po administered 30 mins prior to scopolamine injection for 10 consecutive days followed by testing on day 11 post 30 mins scopolamine treatment by Morris water maze test. It is filed as functional, organism-based.

Data set [4] has as its target Cholinesterase (Equus caballus, UniProt P81908). As to the kind of experiment: Inhibition of horse serum BuChE using butyrylthiocholine iodide as substrate incubated for 5 mins followed by substrate addition measured after 2 mins by Ellman's method.
Data set [5] deals with T1, Acetylcholinesterase. As to the kind of experiment: Mixed/non-competitive inhibition of human AChE using varying levels of acetylthiocholine iodide as substrate at 1 to 20 nM incubated for 20 mins by Lineweaver-Burk plot analysis.
Data set [6] concerns the target Glycogen synthase kinase-3 beta (Mus musculus) (UniProt Q9WV60). The data set is described as follows: Inhibition of GSK-3beta in mouse N2A cells assessed as reduction in tau hyperphosphorylation at Ser396 residues at 10 uM after 6 hrs by Western blot analysis. Type of data set: cell-based. On the technique in general: Immunoblotting shows a protein as a band on a membrane.

The test system of another data set is N2a. The data set is described as follows: Effect on total tau protein level in mouse N2A cells at 10 to 30 uM after 6 hrs by Western blot analysis. Type of data set: cell-based.
Another data set relates to HepG2. The data set is described as follows: Cytotoxicity against human HepG2 cells assessed as reduction in cell viability after 24 hrs by MTT assay. The following applies: HepG2, 24 h. It is filed as cell-based.
For the next data set, the species on record is Homo sapiens. As to the kind of experiment: Selectivity index, ratio of IC50 for human AChE to IC50 for human BuChE.

Activity calls are given as the source filed them. No cut-off for these calls is given here.

Chain of Cholinesterase (Equus caballus, UniProt P81908) (P81908 whole entry): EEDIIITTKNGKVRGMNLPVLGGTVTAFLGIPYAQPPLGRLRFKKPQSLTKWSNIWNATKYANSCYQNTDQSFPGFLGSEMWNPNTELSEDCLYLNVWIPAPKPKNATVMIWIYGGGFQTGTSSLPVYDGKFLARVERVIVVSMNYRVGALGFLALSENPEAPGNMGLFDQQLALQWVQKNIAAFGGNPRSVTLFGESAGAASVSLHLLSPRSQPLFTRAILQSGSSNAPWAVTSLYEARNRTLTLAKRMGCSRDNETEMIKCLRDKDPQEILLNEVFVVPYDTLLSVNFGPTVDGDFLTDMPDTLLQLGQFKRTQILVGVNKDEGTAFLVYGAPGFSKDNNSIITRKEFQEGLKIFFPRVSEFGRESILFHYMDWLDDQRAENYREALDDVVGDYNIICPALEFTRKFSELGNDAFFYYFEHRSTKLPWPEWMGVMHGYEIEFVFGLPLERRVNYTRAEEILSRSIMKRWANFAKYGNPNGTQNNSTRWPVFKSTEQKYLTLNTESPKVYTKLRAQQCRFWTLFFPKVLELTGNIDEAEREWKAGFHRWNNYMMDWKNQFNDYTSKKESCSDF
Chain of Glycogen synthase kinase-3 beta (Mus musculus) (Q9WV60 whole entry, looked up): as the sequence (P49841 whole entry) above, with T390P, T392A, A400T, T402A counted along it

The term IC50 denotes the concentration at which inhibition is half-maximal. With `COc1nc(-c2ccnc(NC(=O)C3CC3)c2)sc1C(=O)NCCCCCCNc1c2c(nc3ccccc13)CCCC2`, the half-maximal inhibitory concentration (IC50) stood at 18 nM in [1], 22 nM against Acetylcholinesterase [2], 100 nM against Cholinesterase [3] and 30000 nM in the data set with SH-SY5Y. The result with Mus musculus was Active.
Consider `COc1nc(-c2ccnc(NC(=O)C3CC3)c2)sc1C(=O)NCCNc1c2c(nc3cc(Cl)ccc13)CCCC2`, for which the IC50 in data set [1] stood at 63 nM; at Acetylcholinesterase [2], 2.1 nM; against Cholinesterase [4] it was 410 nM; with SH-SY5Y it was 2300 nM.
Take `O=C(O)c1sc(-c2ccnc(NC(=O)C3CC3)c2)nc1OCCNc1c2c(nc3ccccc13)CCCC2`: the IC50 in [1] was determined as 270 nM; against Acetylcholinesterase [2] it was 580 nM; against Cholinesterase [3], 450 nM; in the data set with SH-SY5Y, 21000 nM.
Take `NC(=O)c1sc(-c2ccnc(NC(=O)C3CC3)c2)nc1OCCNc1c2c(nc3ccccc13)CCCC2`: the IC50 in data set [1] was 34 nM; on Acetylcholinesterase [2], 300 nM; on Cholinesterase [3], 150 nM; in the data set on SH-SY5Y it was 19000 nM.
For `COc1ccc2nc3c(c(NCCCNC(=O)c4sc(-c5ccnc(NC(=O)C6CC6)c5)nc4OC)c2c1)CCCC3`, the half-inhibitory concentration (IC50) in data set [1] is 65 nM; at Acetylcholinesterase [2], 38 nM; against Cholinesterase [4] it was 2300 nM; in the data set with SH-SY5Y it was 2900 nM.
Consider `COc1nc(-c2ccnc(NC(=O)C3CC3)c2)sc1C(=O)NCCCNc1c2c(nc3ccccc13)CCCC2`, for which the IC50 in data set [1] worked out at 66 nM; on Acetylcholinesterase [2] it was 6.4 nM; on Cholinesterase [3], 260 nM; in the data set with SH-SY5Y it was 18000 nM; with HepG2, 35000 nM. Further, the inhibition result (on Acetylcholinesterase [5]; in data set [6]) was “Active” each time. In addition, the Activity result in the data set with N2a was “Non-Toxic”. Also, the outcome in the data set on Mus musculus was Active.
Regarding `COc1nc(-c2ccnc(NC(=O)C3CC3)c2)sc1C(=O)NCCNc1c2c(nc3ccccc13)CCCC2`, the IC50 in data set [1] was 68 nM; on Acetylcholinesterase [2], 6.3 nM; on Cholinesterase [3], 51 nM; with SH-SY5Y it was 6300 nM.
Consider `COC(=O)c1sc(-c2ccnc(NC(=O)C3CC3)c2)nc1OCCNc1c2c(nc3ccccc13)CCCC2`, for which the IC50 in data set [1] came to 99 nM; on Acetylcholinesterase [2], 130 nM; against Cholinesterase [3] it was 28 nM; in the data set with SH-SY5Y it was 13000 nM. In addition, the Ratio IC50 in the data set listed under Homo sapiens stood at 4.6. Further, in the data set on Mus musculus, the outcome was Active.
In the case of `CCOC(=O)c1sc(-c2ccnc(NC(=O)C3CC3)c2)nc1OCCNc1c2c(nc3ccccc13)CCCC2`, the IC50 in data set [1] came out at 180 nM; against Acetylcholinesterase [2] it was 310 nM; at Cholinesterase [3], 610 nM; in the data set on SH-SY5Y it was 7100 nM.
As to `COc1nc(-c2ccnc(NC(=O)C3CC3)c2)sc1C(=O)NCCCNc1c2c(nc3cc(Cl)ccc13)CCCC2`, the IC50 in data set [1] is 98 nM; on Acetylcholinesterase [2], 3.6 nM; against Cholinesterase [4] it was 290 nM; in the data set on SH-SY5Y it was 3100 nM.
`COc1ccc2nc3c(c(NCCNC(=O)c4sc(-c5ccnc(NC(=O)C6CC6)c5)nc4OC)c2c1)CCCC3`: the IC50 in data set [1] came out at 83 nM; against Acetylcholinesterase [2], 23 nM; on Cholinesterase [4], 2100 nM; in the data set with SH-SY5Y, 8900 nM.
